Measurements: PMC5988656, “Phase I studies of AZD1208, a proviral integration Moloney virus kinase inhibitor in solid and haematological cancers” (British Journal of Cancer, 2018)

Legend:
[1] = Solid tumour dose-escalation study: pharmacokinetics (plasma, urine); format: in vivo, human; settings: for Plasma concentration of AZD1208, Gmean: Cycle 1, Day 15
Description: The schedules for collection of blood and urine samples for PK analyses in each cohort in both studies are described in Supplementary Table 1. When necessary for clinical response assessment in the AML study, a bone marrow sample for PK analysis was collected at Cycle 1, Day 28.
The concentration of AZD1208 in plasma and urine was determined by Covance, on behalf of Clinical Bioanalysis Alliance at AstraZeneca R&D, using a bioanalytical method. A volume of 0.05 ml of K2EDTA human plasma sample was extracted by liquid–liquid extraction using 0.7 ml of methyl tert-butyl ether. Approximately 100 µl of the supernatant was transferred, evaporated to dryness and reconstituted with 350 µl of 1:1 methanol:water, and a 5 µl injection was made to the high-performance liquid chromatography (HPLC) column. HPLC separations were performed on a Phenomenex LUNA C18 (50 × 2 mm, 5 µm) column using a mobile phase of 0.1% formic acid in water (A) and 0.1% formic acid in acetonitrile (B) at a flow rate of 0.6 ml/min and a column temperature of 40 °C. AZD1208-D5 was used as the internal standard. Detection was performed in a Sciex API4000 mass spectrometer, in a positive electrospray ionisation mode, using multiple reaction monitoring detection (AZD1208: 380.0–>248.1; AZD1208-D5: 385.0–>253.1).

AML cell lines = settings: cited from earlier work

Question: For `N[C@@H]1CCCN(c2c(/C=C3\SC(=O)NC3=O)cccc2-c2ccccc2)C1` [AZD1208], which “Plasma concentration of AZD1208, Gmean” value ([1]; 0.25 h post-dose, 540 mg) is on record?
Answer: n=3 496.8 ng ml

Question: And the “Plasma concentration of AZD1208, Gmean” value ([1]; 0.5 h post-dose, 120 mg)?
Answer: n=3 1109 ng ml

Question: And the “Plasma concentration of AZD1208, Gmean” value ([1]; 0.5 h post-dose, 240 mg)?
Answer: n=6 881.5 ng ml

Question: And the “Plasma concentration of AZD1208, Gmean” value ([1]; 0.5 h post-dose, 360 mg)?
Answer: n=3 884.4 ng ml

Question: And the “Plasma concentration of AZD1208, Gmean” value ([1]; 0.5 h post-dose, 540 mg)?
Answer: n=3 774 ng ml

Question: What about the “Plasma concentration of AZD1208, Gmean” value ([1]; 0.5 h post-dose, 700 mg) of the same compound?
Answer: n=4 1042 ng ml

Question: What about the “Plasma concentration of AZD1208, Gmean” value ([1]; 0.5 h post-dose, 800 mg) of the same compound?
Answer: n=2 1420 ng ml

Question: What about the “Plasma concentration of AZD1208, Gmean” value ([1]; 1 h post-dose, 120 mg) of the same compound?
Answer: n=3 1319 ng ml

Question: And the “Plasma concentration of AZD1208, Gmean” value ([1]; 1 h post-dose, 240 mg)?
Answer: n=6 1316 ng ml

Question: And the “Plasma concentration of AZD1208, Gmean” value ([1]; 1 h post-dose, 360 mg)?
Answer: n=3 1983 ng ml

Question: And the “Plasma concentration of AZD1208, Gmean” value ([1]; 1 h post-dose, 540 mg)?
Answer: n=3 1691 ng ml

Question: What about the “Plasma concentration of AZD1208, Gmean” value ([1]; 1 h post-dose, 700 mg) of the same compound?
Answer: n=4 1320 ng ml

Question: And the “Plasma concentration of AZD1208, Gmean” value ([1]; 1 h post-dose, 800 mg)?
Answer: n=2 1783 ng ml

Question: What about the “Plasma concentration of AZD1208, Gmean” value ([1]; 1.5 h post-dose, 120 mg) of the same compound?
Answer: n=3 1367 ng ml

Question: What about the “Plasma concentration of AZD1208, Gmean” value ([1]; 1.5 h post-dose, 240 mg) of the same compound?
Answer: n=6 1843 ng ml

Question: What about the “Plasma concentration of AZD1208, Gmean” value ([1]; 1.5 h post-dose, 360 mg) of the same compound?
Answer: n=3 3212 ng ml

Question: And the “Plasma concentration of AZD1208, Gmean” value ([1]; 1.5 h post-dose, 540 mg)?
Answer: n=3 3302 ng ml

Question: What about the “Plasma concentration of AZD1208, Gmean” value ([1]; 2 h post-dose, 120 mg) of the same compound?
Answer: n=3 1681 ng ml

Question: What about the “Plasma concentration of AZD1208, Gmean” value ([1]; 2 h post-dose, 240 mg) of the same compound?
Answer: n=6 2340 ng ml

Question: What about the “Plasma concentration of AZD1208, Gmean” value ([1]; 2 h post-dose, 360 mg) of the same compound?
Answer: n=3 3106 ng ml

Question: And the “Plasma concentration of AZD1208, Gmean” value ([1]; 2 h post-dose, 540 mg)?
Answer: n=3 3646 ng ml

Question: What about the “Plasma concentration of AZD1208, Gmean” value ([1]; 2 h post-dose, 700 mg) of the same compound?
Answer: n=4 2802 ng ml

Question: What about the “Plasma concentration of AZD1208, Gmean” value ([1]; 2 h post-dose, 800 mg) of the same compound?
Answer: n=2 1705 ng ml

Question: And the “Plasma concentration of AZD1208, Gmean” value ([1]; 4 h post-dose, 120 mg)?
Answer: n=3 1649 ng ml

Question: And the “Plasma concentration of AZD1208, Gmean” value ([1]; 4 h post-dose, 240 mg)?
Answer: n=6 1899 ng ml

Question: What about the “Plasma concentration of AZD1208, Gmean” value ([1]; 4 h post-dose, 360 mg) of the same compound?
Answer: n=3 2483 ng ml

Question: And the “Plasma concentration of AZD1208, Gmean” value ([1]; 4 h post-dose, 540 mg)?
Answer: n=3 2508 ng ml

Question: And the “Plasma concentration of AZD1208, Gmean” value ([1]; 4 h post-dose, 700 mg)?
Answer: n=4 2882 ng ml

Question: And the “Plasma concentration of AZD1208, Gmean” value ([1]; 4 h post-dose, 800 mg)?
Answer: n=2 2509 ng ml

Question: And the “Plasma concentration of AZD1208, Gmean” value ([1]; 6 h post-dose, 120 mg)?
Answer: n=3 1657 ng ml

Question: What about the “Plasma concentration of AZD1208, Gmean” value ([1]; 6 h post-dose, 240 mg) of the same compound?
Answer: n=6 1637 ng ml

Question: What about the “Plasma concentration of AZD1208, Gmean” value ([1]; 6 h post-dose, 360 mg) of the same compound?
Answer: n=2 2130 ng ml

Question: And the “Plasma concentration of AZD1208, Gmean” value ([1]; 6 h post-dose, 540 mg)?
Answer: n=3 2023 ng ml

Question: And the “Plasma concentration of AZD1208, Gmean” value ([1]; 6 h post-dose, 700 mg)?
Answer: n=4 3291 ng ml

Question: What about the “Plasma concentration of AZD1208, Gmean” value ([1]; 6 h post-dose, 800 mg) of the same compound?
Answer: n=2 3401 ng ml

Question: What about the “Plasma concentration of AZD1208, Gmean” value ([1]; 8 h post-dose, 120 mg) of the same compound?
Answer: n=3 1262 ng ml

Question: And the “Plasma concentration of AZD1208, Gmean” value ([1]; 8 h post-dose, 240 mg)?
Answer: n=6 1466 ng ml

Question: And the “Plasma concentration of AZD1208, Gmean” value ([1]; 8 h post-dose, 360 mg)?
Answer: n=3 1813 ng ml

Question: And the “Plasma concentration of AZD1208, Gmean” value ([1]; 8 h post-dose, 540 mg)?
Answer: n=3 1739 ng ml

Question: And the “Plasma concentration of AZD1208, Gmean” value ([1]; pre-dose, 120 mg)?
Answer: n=3 903.1 ng ml

Question: And the “Plasma concentration of AZD1208, Gmean” value ([1]; pre-dose, 240 mg)?
Answer: n=6 560.9 ng ml

Question: And the “Plasma concentration of AZD1208, Gmean” value ([1]; pre-dose, 360 mg)?
Answer: n=3 602.5 ng ml

Question: And the “Plasma concentration of AZD1208, Gmean” value ([1]; pre-dose, 540 mg)?
Answer: n=4 266.6 ng ml

Question: And the “Plasma concentration of AZD1208, Gmean” value ([1]; pre-dose, 700 mg)?
Answer: n=3 819 ng ml

Question: What about the “Plasma concentration of AZD1208, Gmean” value ([1]; pre-dose, 800 mg) of the same compound?
Answer: n=2 1099 ng ml

Question: And the “Half-life, max” value ([1]; following a single dose)?
Answer: 103 h

Question: And the “Half-life, min” value ([1]; following a single dose)?
Answer: 18.9 h

Question: What about the Mean half-life ([1]; following a single dose) of the same compound?
Answer: 37.2 h

Question: And the “Median Tmax” value ([1]; multiple dosing)?
Answer: ~ 4 h

Question: And the Tmax range ([1]; multiple dosing)?
Answer: 1.5 to 6 h

Question: What about the “AZD1208 dose observed in urine” value ([1]; multiple dosing, Day 15) of the same compound?
Answer: 0.5%

Question: What about the Renal clearance ([1]; single and multiple dosing) of the same compound?
Answer: negligible

Question: What about the “AZD1208 dose eliminated in urine” value ([1]; single dose, over 72 h) of the same compound?
Answer: ~ 1%

Question: And the “Median Tmax” value ([1]; single dosing)?
Answer: ~ 5 h

Question: And the Tmax range ([1]; single dosing)?
Answer: 1.5 to 25 h

Question: And the “Effect on cell cycle and apoptosis” value (AML cell lines)?
Answer: induced cell cycle arrest and apoptosis
